Assay results published in patent publication US10220038B2, “Pharmaceutical combinations” (Novartis AG, priority 2013, dated 2019).
pIC50: −log10 of the molar value.

What was measured:
HSAX2655 tumor = assay: Well differentiated liposarcoma (WDLPS) patient-derived in vivo model HSAX2655, efficacy; set-up: species or system Harlan nude mice; conditions: p.o., q24h, Compound A 30 mg/kg, Compound C 75 mg/kg; for Tumor T/C: day 14 post 1st treatment; for Tumor ΔTvol: day 37 post transplantation (day 14 post 1st treatment)
Experimental: PDX tumors were induced by transplanting subcutaneously frozen pieces of tumors in the right flank of Harlan nude mice. After several weeks of growth, donor animals were sacrificed and tumors were taken out and cut in 3×3×3 mm^3 pieces. Each tumor piece was transplanted subcutaneously in the right flank of naive Harlan nude mice. Efficacy experiment could start 30 days post transplantation. Compounds A and C were formulated fresh for each administration. The compounds were dissolved in 0.5% methylcellulose. For efficacy experiments, mice were randomized into groups of n=5 and treated for 14 days. Compound A was injected at 30 mg/kg and Compound C at 75, 150 and 250 mg/kg. Mice were treated daily (q24 h) p.o. at 10 ml/kg for both drugs. On the last day of experiment, mice from each treatment group were sacrificed 4 and 24 h post last treatment and tumors were snap-frozen. Efficacy and tolerability were assessed by determining tumor volume and body weight, respectively. Tumor volume (TVol), determined from caliper measurements (using the formula I*w*h*π/6) were measured three times per week. Tumor response was quantified by the change in tumor volume (endpoint minus starting value in mm^3) as the T/C i.e. [formula] In the case of tumor regression, the tumor response was quantified by the percentage of regression of the starting TVol, ie Differences between the means of TVol and BW were assessed on the endpoint ΔTvol or % ΔBW using a 1-way ANOVA with Dunnett or Tukey's tests post-hoc. Linear correlations were explored by determining Pearson correlation coefficient, with P<0.05 considered as significant. A non-statistical analysis of the combination effects of therapy on the efficacy were calculated using a modification of the method described by Clark (1997) to obtain a Combination Index (CI). Thus, multiplication of the AUC-T/Cs for single agents A and B was compared to the AUC-T/C obtained for the actual combination A+B.

[1] = Tolerability in HSAX2655-tumor bearing mice (body weight, survival); format: in vivo; conditions: p.o., q24h, Compound A 30 mg/kg, Compound C 75 mg/kg, day 14 post 1st treatment; for Host Survival: survivors/group
Experimental: Compounds A and C were formulated fresh for each administration. The compounds were dissolved in 0.5% methylcellulose. For efficacy experiments, mice were randomized into groups of n=5 and treated for 14 days. Compound A was injected at 30 mg/kg and Compound C at 75, 150 and 250 mg/kg. Mice were treated daily (q24 h) p.o. at 10 ml/kg for both drugs. On the last day of experiment, mice from each treatment group were sacrificed 4 and 24 h post last treatment and tumors were snap-frozen.
Efficacy and tolerability were assessed by determining tumor volume and body weight, respectively. Tumor volume (TVol), determined from caliper measurements (using the formula I*w*h*π/6) were measured three times per week. Tumor response was quantified by the change in tumor volume (endpoint minus starting value in mm^3) as the T/C i.e.
[formula] The body-weight (BW) of the mice was measured three times per week allowing calculation at any particular time-point relative to the day of initiation of treatment (day 0) of both the percentage change in BW (Δ % BW).
Differences between the means of TVol and BW were assessed on the endpoint ΔTvol or % ΔBW using a 1-way ANOVA with Dunnett or Tukey's tests post-hoc. Linear correlations were explored by determining Pearson correlation coefficient, with P<0.05 considered as significant.

[2] = test system: liposarcoma cell line 778; assay: Microscopy (nuclei count) proliferation assay, 72 hrs, 778 cells; format: cell-based; conditions: single agent
Experimental: (§1) Compounds B and C were dissolved in 100% DMSO (Sigma, Catalog number D2650) at concentrations of 10 mM and stored at −20° C. until use. Compounds were arrayed in 300 uL deep well 384-well plates (BrandTec, Catalog number 701355) at 8× the highest final concentration. Row and column dilutions were prepared separately using a Bravo liquid handler (Agilent Technologies). Dilutions were made at 1:2 giving a total of 10 dilutions for each compound. Once completed the row and column dilution plates were combined 1:1 giving a final stamping plate at 4× concentration.
(§2) The cell lines 449b, 778 and LP6 were cultured in RPMI1640 (ATCC, Catalog number 30-2110) supplemented with 10% FBS (HyClone, Catalog number SH30071.03) at 37° C. and 5% CO2. In all cases cells were thawed from frozen stocks, expanded through ≥1 passage using 1:6 dilutions. Cells were counted and assessed for viability using a ViCell counter (Beckman-Coulter). The identity of all the cell lines was confirmed by SNP profiling.
All cells were seeded at a concentration of […] cells/mL in 30 uL RPMI1640 media using a BioTek MicroFill (BioTek). Four 384-well plates were prepared per cell line (Greiner bio-one, catalog number 781091). The next day, compound was added using Bravo liquid handler. […] To other plates, compound was added and plates were incubated for 72 hrs. Following incubation period, 10 ul of the media was removed using the ELx405 Microplate Washer (BioTek/Thermo Scientific). […]
(§3) An automated image analysis pipeline was established using custom-made scripts in the open-source, statistical programming language R, and functions of the BioConductor package EBImage. The goal was to quantify the number of viable nuclei (cells) per well as an approximation for cell viability. […]

[3] = test system: liposarcoma cell line LP6; assay: Microscopy (nuclei count) proliferation assay, 72 hrs, LP6 cells; format: cell-based; conditions: single agent
Experimental: as §1
as §2, with “profiling. […]” for “profiling.”
as §3

[4] = test system: liposarcoma cell line 449b; assay: Microscopy (nuclei count) proliferation assay, 72 hrs, 449b cells; format: cell-based; conditions: single agent
Experimental: as §1
as §2, with “profiling. […]” for “profiling.”
as §3

| SMILES | Tumor T/C (HSAX2655 tumor) | Tumor ΔTvol (HSAX2655 tumor) | Host ΔBW [1] | Host Survival [1] | pIC50 ([2]; 72 h) | pIC50 [2] | pIC50 [3] | pIC50 [4] |
| --- | --- | --- | --- | --- | --- | --- | --- | --- |
| COc1cc2c(cc1OC(C)C)[C@H](c1ccc(Cl)cc1)N(c1ccc(N(C)C[C@H]3CC[C@H](N4CCN(C)C(=O)C4)CC3)cc1)C(=O)C2 [Compound A, (S)-1-(4-Chloro-phenyl)-7-isopropoxy-6-methoxy-2-(4-{methyl-[4-(4-methyl-3-oxo-piperazin-1-yl)-trans-cyclohexylmethyl]-amino}-phenyl)-1,4-dihydro-2H-isoquinolin-3-one] | 6% | 24 ± 12 ^a mm^3 | 6.9 ± 2.0% | 5/5 | – | – | – | – |
| COc1ncc(-c2nc3c(n2C(C)C)[C@H](c2ccc(Cl)cc2)N(c2cc(Cl)cn(C)c2=O)C3=O)c(OC)n1 [Compound B, (S)-5-(5-Chloro-1-methyl-2-oxo-1,2-dihydro-pyridin-3-yl)-6-(4-chloro-phenyl)-2-(2,4-dimethoxy-pyrimidin-5-yl)-1-isopropyl-5,6-dihydro-1H-pyrrolo[3,4-d]imidazol-4-one] | – | – | – | – | 7.33 | 7.19 | 7.07 | 7.56 |
| CN(C)C(=O)c1cc2cnc(Nc3ccc(N4CCNCC4)cn3)nc2n1C1CCCC1 [Compound C, 7-Cyclopentyl-2-(5-piperazin-1-yl-pyridin-2-ylamino)-7H-pyrrolo[2,3-d]pyrimidine-6-carboxylic acid dimethylamide] | 18% | 66 ± 18 ^a mm^3 | 4.7 ± 2.3% | 5/5 | 7.23 | – | 6.32 | 6.89 |
